The target of test [1] is T1, PDE4D (Homo sapiens, UniProt Q08499).
T1 construct: PDE4D: The catalytic domain of human PDE4B from S3 16-V692; His6 (N); thrombin cleavage site (N); made in house; host or cells: E. coli
The test can be described thus: PDE4 IC50 determination by Scintillation Proximity Assay, PDE4D. The format is biochemical. The note with it: Table 1B, Formula I compounds; read-out: IC50 PDE4D. The essentials: (§1)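 Scintillation counts reflected [^3H]AMP captured on yttrium silicate SPA beads after enzyme hydrolysed [^3H]cAMP for 30 min at 30°. PDE4B was used at 80 ng/ml and PDE4D at 4 ng/ml. IC50 values came from non-linear regression.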
In general terms: Scintillation proximity formats need no separation of bound from free tracer.

Test [2] deals with T2, PDE4B: The catalytic domain of human PDE4B from S152-S528 (Homo sapiens, UniProt Q07343).
T2 construct: His6 (N); thrombin cleavage site (N); made in house; host or cells: E. coli
The test can be described thus: PDE4 IC50 determination by Scintillation Proximity Assay, PDE4B. The format is biochemical. The note with it: Table 1B, Formula I compounds; read-out: IC50 PDE4B. Put shortly:
as §1

Molecules are shown by their SMILES.

T2 sequence (Q07343 with tags, fused parts or gaps): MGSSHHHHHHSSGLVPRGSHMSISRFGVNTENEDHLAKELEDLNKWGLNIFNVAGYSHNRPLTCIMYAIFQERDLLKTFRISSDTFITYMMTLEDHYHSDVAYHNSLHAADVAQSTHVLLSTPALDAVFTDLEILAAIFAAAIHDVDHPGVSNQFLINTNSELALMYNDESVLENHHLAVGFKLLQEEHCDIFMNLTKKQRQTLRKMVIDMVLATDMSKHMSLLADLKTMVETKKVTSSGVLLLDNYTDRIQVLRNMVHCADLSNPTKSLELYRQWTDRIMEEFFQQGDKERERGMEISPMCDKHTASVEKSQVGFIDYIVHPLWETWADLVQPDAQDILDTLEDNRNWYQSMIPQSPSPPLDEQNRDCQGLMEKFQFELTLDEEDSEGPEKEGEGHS
T1 sequence (Q08499 380-756): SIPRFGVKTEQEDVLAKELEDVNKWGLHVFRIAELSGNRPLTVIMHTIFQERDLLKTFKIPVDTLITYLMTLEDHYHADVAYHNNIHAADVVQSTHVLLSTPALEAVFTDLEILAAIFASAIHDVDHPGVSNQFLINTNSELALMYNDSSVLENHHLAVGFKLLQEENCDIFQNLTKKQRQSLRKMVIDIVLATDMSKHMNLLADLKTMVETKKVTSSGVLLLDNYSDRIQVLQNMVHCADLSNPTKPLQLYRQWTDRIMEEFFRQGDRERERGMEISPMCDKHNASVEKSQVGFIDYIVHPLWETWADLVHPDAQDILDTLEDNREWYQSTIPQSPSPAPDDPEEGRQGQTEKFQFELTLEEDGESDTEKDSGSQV

As a reminder, the IC50 is the concentration that gives 50% inhibition. With `N#Cc1c(Nc2ccc(C(=O)NC3CCOC3=O)cc2)sc(C(=O)c2coc3ccccc23)c1N` (stereo not shown) [Compound 1-108, 4-[4-Amino-5-(benzofuran-3-carbonyl)-3-cyano-thiophen-2-ylamino]-N-(2-oxo-tetrahydro-furan-3-yl)-benzamide], the IC50 in test [1] and in test [2] was below 10 µM each time.

Regarding `CCc1ccccc1Nc1sc(C(=O)c2coc3ccccc23)c(N)c1C#N` [Compound 1-109, 4-Amino-5-(benzofuran-3-carbonyl)-2-(2-ethyl-phenylamino)-thiophene-3-carbonitrile], the IC50 in test [1] and in test [2] was below 10 µM in each case.

For `COC(=O)C(CC(C)C)Nc1sc(C(=O)c2ccccc2Cl)c(N)c1C#N` (stereo not shown) [Compound 1-111, 2-[4-Amino-5-(2-chloro-benzoyl)-3-cyano-thiophene-2-ylamino]-4-methyl-pentanoic acid methyl ester], the IC50 in test [1] and in test [2] was below 10 µM each time.

Turning to `COC(=O)C(CCSC)Nc1sc(C(=O)c2ccccc2Cl)c(N)c1C#N` (stereo not shown) [Compound 1-112, 2-[4-Amino-5-(2-chloro-benzoyl)-3-cyano-thiophene-2-ylamino]-4-methylsulfanyl-butyric acid methyl ester], the IC50 in test [1] and in test [2] was below 10 µM each time.

In the case of `COc1ccc(CNc2sc(C(=O)c3ccccc3Cl)c(N)c2C#N)cc1OC` [Compound 1-113, 4-Amino-5-(2-chloro-benzoyl)-2-(3,4-dimethoxy-benzylamino)-thiophene-3-carbonitrile], the IC50 in test [1] and in test [2] was below 10 µM each time.

As to `N#Cc1c(Nc2ccc(C(=O)NC3CCOC3=O)cc2)sc(C(=O)c2ccccc2Cl)c1N` (stereo not shown) [Compound 1-114, 4-[4-Amino-5-(2-chloro-benzoyl)-3-cyano-thiophen-2-ylamino]-N-(2-oxo-tetrahydro-furan-3-yl)-benzamide], the IC50 in test [1] and in test [2] was below 10 µM each time.

In the case of `N#Cc1c(NC2CCCC2)sc(C(=O)c2ccccc2Cl)c1N` [Compound 1-115, 4-Amino-5-(2-chloro-benzoyl)-2-cyclopentylamino-thiophene-3-carbonitrile], the IC50 in test [1] and in test [2] was below 10 µM in each case.

For the compound `N#Cc1c(NC2CCOC2=O)sc(C(=O)c2ccccc2Cl)c1N` (stereo not shown) [Compound 1-116, 4-Amino-5-(2-chloro-benzoyl)-2-(2-oxo-tetrahydro-furan-3-ylamino)-thiophene-3-carbonitrile], the IC50 in test [1] and in test [2] was above 10 µM throughout.

`COc1ccc(Nc2sc(C(=O)c3cccc(Cl)c3)c(N)c2C#N)cc1` [Compound 1-117, 4-Amino-5-(3-chloro-benzoyl)-2-(4-methoxy-phenylamino)-thiophene-3-carbonitrile]: the IC50 in test [1] and in test [2] was below 10 µM each time.

In the case of `COC(=O)C(CC(C)C)Nc1sc(C(=O)c2cccc(Cl)c2)c(N)c1C#N` (stereo not shown) [Compound 1-118, 2-[4-Amino-5-(3-chloro-benzoyl)-3-cyano-thiophen-2-ylamino]-4-methyl-pentanoic acid methyl ester], the IC50 in test [1] is above 10 µM; in test [2] it was below 10 µM.

For `N#Cc1c(Nc2ccc(C(=O)NC3CCOC3=O)cc2)sc(C(=O)c2cccc(Cl)c2)c1N` (stereo not shown) [Compound 1-119, 4-[4-Amino-5-(3-chloro-benzoyl)-3-cyano-thiophen-2-ylamino]-N-(2-oxo-tetrahydro-furan-3-yl)-benzamide], the IC50 in test [1] and in test [2] was below 10 µM each time.

`N#Cc1c(NC2CCCC2)sc(C(=O)c2cccc(Cl)c2)c1N` [Compound 1-120, 4-Amino-5-(3-chloro-benzoyl) 2-cyclopentylamino-thiophene-3-carbonitrile]: the IC50 in test [1] and in test [2] was below 10 µM in each case.

As to `COC(=O)C(CC(C)C)Nc1sc(C(=O)c2csc3ccccc23)c(N)c1C#N` (stereo not shown) [Compound 1-121, 2-[4-Amino-5-(benzo[b]thiophene-3-carbonyl)-3-cyano-thiophen-2-ylamino]-4-methyl-pentanoic acid methyl ester], the IC50 in test [1] and in test [2] was below 10 µM throughout.

Regarding `COC(=O)C(CCSC)Nc1sc(C(=O)c2csc3ccccc23)c(N)c1C#N` (stereo not shown) [Compound 1-122, 2-[4-Amino-5-(benzo[b]thiophene-3-carbonyl)-3-cyano-thiophen-2-ylamino]-4-methylsulfanyl-butyric acid methyl ester], the IC50 in test [1] and in test [2] was below 10 µM throughout.

As for `N#Cc1c(Nc2ccc(C(=O)NC3CCOC3=O)cc2)sc(C(=O)c2csc3ccccc23)c1N` (stereo not shown) [Compound 1-123, 4-[4-Amino-5-(benzo[b]thiophene-3-carbonyl)-3-cyano-thiophen-2-ylamino]-N-(2-oxo-tetrahydro-furan-3-yl)-benzamide], the IC50 in test [1] and in test [2] was below 10 µM throughout.

Regarding `N#Cc1c(NC2CCCC2)sc(C(=O)c2csc3ccccc23)c1N` [Compound 1-124, 4-Amino-5-(benzo[b]thiophene-3-carbonyl)-2-cyclopentylamino-thiophene-3-carbonitrile], the IC50 in test [1] is above 10 µM; in test [2], below 10 µM.

Turning to `COC(=O)c1ccccc1Nc1sc(C(=O)c2cnn(-c3ccccc3)c2C)c(N)c1C#N` [Compound 1-126, 2-[4-Amino-3-cyano-5-(5-methyl-1-phenyl-1H-pyrazole-4-carbonyl)-thiophen-2-ylamino]-benzoic acid methyl ester], the IC50 in test [1] and in test [2] was below 10 µM in each case.

On to `Cc1c(C(=O)c2sc(Nc3ccc(C(=O)NC4CCOC4=O)cc3)c(C#N)c2N)cnn1-c1ccccc1` (stereo not shown) [Compound 1-127, 4-[4-Amino-3-cyano-5-(5-methyl-1-phenyl-1H-pyrazole-4-carbonyl)-thiophen-2-ylamino]-N-(2-oxo-tetrahydro-furan-3-yl)-benzamide], for which the IC50 in test [1] and in test [2] was below 10 µM throughout.

For `Cc1onc(-c2ccccc2)c1C(=O)c1sc(Nc2ccccc2F)c(C#N)c1N` [Compound 1-128, 4-Amino-2-(2-fluoro-phenylamino)-5-(5-methyl-3-phenyl-isoxazole-4-carbonyl)-thiophene-3-carbonitrile], the IC50 in test [1] and in test [2] was below 10 µM in each case.

Take `COC(=O)C(CCSC)Nc1sc(C(=O)c2c(-c3ccccc3)noc2C)c(N)c1C#N` (stereo not shown) [Compound 1-131, 2-[4-Amino-3-cyano-5-(5-methyl-3-phenyl-isoxazole-4-carbonyl)-thiophen-2-ylamino]-4-methylsulfanyl-butyric acid methyl ester]: the IC50 in test [1] is above 10 µM; in test [2], below 10 µM.

As for `COc1ccc(CNc2sc(C(=O)c3c(-c4ccccc4)noc3C)c(N)c2C#N)cc1OC` [Compound 1-132, 4-Amino-2-(3,4-dimethoxy-benzylamino)-5-(5-methyl-3-phenyl-isoxazole-4-carbonyl)-thiophene-3-carbonitrile], the IC50 in test [1] and in test [2] was below 10 µM in each case.

With `Cc1onc(-c2ccccc2)c1C(=O)c1sc(Nc2ccc(C(=O)NC3CCOC3=O)cc2)c(C#N)c1N` (stereo not shown) [Compound 1-133, 4-[4-Amino-3-cyano-5-(5-methyl-3-phenyl-isoxazole-4-carbonyl)-thiophen-2-ylamino]-N-(2-oxo-tetrahydro-furan-3-yl)-benzamide], the IC50 in test [1] and in test [2] was below 10 µM each time.

Turning to `Cc1onc(-c2ccccc2)c1C(=O)c1sc(NC2CCOC2=O)c(C#N)c1N` (stereo not shown) [Compound 1-134, 4-Amino-5-(5-methyl-3-phenyl-isoxazole-4-carbonyl)-2-(2-oxo-tetrahydro-furan-3-ylamino)-thiophene-3-carbonitrile], the IC50 in test [1] is above 10 µM; in test [2], below 10 µM.

Regarding `CCOC(=O)c1cc(C(=O)c2sc(NCCN3CCCCC3)c(C#N)c2N)on1` [Compound 1-135, 5-[3-Amino-4-cyano-5-(2-piperidin-1-yl-ethylamino)-thiophene-2-carbonyl]-isoxazole-3-carboxylic acid ethyl ester], the IC50 in test [1] and in test [2] was below 10 µM in each case.

`CCOC(=O)c1cc(C(=O)c2sc(NC(=O)c3ccccc3C)c(C#N)c2N)on1` [Compound 1-136, 5-[3-Amino-4-cyano-5-(2-methyl-benzoylamino)-thiophene-2-carbonyl]-isoxazole-3-carboxylic acid ethyl ester]: the IC50 in test [1] and in test [2] was above 10 µM each time.

On to `CCOC(=O)c1cc(C(=O)c2sc(NC(CC(C)C)C(=O)OC)c(C#N)c2N)on1` (stereo not shown) [Compound 1-137, 5-[3-Amino-4-cyano-5-(1-methoxycarbonyl-3-methyl-butylamino)-thiophene-2-carbonyl]-isoxazole-3-carboxylic acid ethyl ester], for which the IC50 in test [1] was above 10 µM; in test [2], below 10 µM.

As to `CCOC(=O)c1cc(C(=O)c2sc(Nc3ccc(C(=O)NC4CCOC4=O)cc3)c(C#N)c2N)on1` (stereo not shown) [Compound 1-138], the IC50 in test [1] and in test [2] was below 10 µM throughout.

In the case of `CCOC(=O)c1cc(C(=O)c2sc(NC3CCOC3=O)c(C#N)c2N)on1` (stereo not shown) [Compound 1-140, 5-[3-Amino-4-cyano-5-(2-oxo-tetrahydro-furan-3-ylamino)-thiophene-2-carbonyl]-isoxazole-3-carboxylic acid ethyl ester], the IC50 in test [1] was above 10 µM; in test [2], below 10 µM.

As to `COC(=O)C(CC(C)C)Nc1sc(C(=O)c2cc(-c3ccccc3)no2)c(N)c1C#N` (stereo not shown) [Compound 1-141, 2-[4-Amino-3-cyano-5-(3-phenyl-isoxazole-5-carbonyl)-thiophen-2-ylamino]-4-methyl-pentanoic acid methyl ester], the IC50 in test [1] and in test [2] was below 10 µM in each case.

The record behind these values is patent publication US7585859B2, “PDE4B inhibitors and uses therefor” (Plexxikon, Inc., priority 2004, dated 2009).
